Assay results reported in ChEMBL document CHEMBL1123458, “2-Phenylindenes: development of a new mammary tumor inhibiting antiestrogen by combination of estrogenic side effect lowering structural elements” (1986).

Experiments:
[1] = target: T1, Estrogen receptor (Mus musculus) (UniProt O08537+P19785); assay: Anti-uterotrophic effect in mice at 1.0 ug; assay type: functional
[2] = target: T1, Estrogen receptor (Mus musculus); assay: Anti-uterotrophic effect in immature mice at 25 ug; assay type: functional
[3] = target: Estrogen receptor (Bos taurus) (UniProt Q9XSB5+P49884); assay: Inhibition of [3H]estradiol binding to calf uterine estrogen receptor; assay type: protein assay
[4] = target: T1, Estrogen receptor (Mus musculus); assay: Anti-uterotrophic effect in mice at 25 ug; assay type: functional
[5] = target: T1, Estrogen receptor (Mus musculus); assay: Anti-uterotrophic effect in immature mice at 1.0 ug; assay type: functional
[6] = target: T1, Estrogen receptor (Mus musculus); assay: Anti-uterotrophic effect in immature mice at 100 ug; assay type: functional
[7] = target: T1, Estrogen receptor (Mus musculus); assay: Anti-uterotrophic effect in mice at 5 ug; assay type: functional
[8] = target: T1, Estrogen receptor (Mus musculus); assay: Anti-uterotrophic effect in mice at 100 ug; assay type: functional
[9] = target: T1, Estrogen receptor (Mus musculus); assay: Anti-uterotrophic effect in immature mice at 5 ug; assay type: functional

T1 sequence (O08537 whole entry, looked up): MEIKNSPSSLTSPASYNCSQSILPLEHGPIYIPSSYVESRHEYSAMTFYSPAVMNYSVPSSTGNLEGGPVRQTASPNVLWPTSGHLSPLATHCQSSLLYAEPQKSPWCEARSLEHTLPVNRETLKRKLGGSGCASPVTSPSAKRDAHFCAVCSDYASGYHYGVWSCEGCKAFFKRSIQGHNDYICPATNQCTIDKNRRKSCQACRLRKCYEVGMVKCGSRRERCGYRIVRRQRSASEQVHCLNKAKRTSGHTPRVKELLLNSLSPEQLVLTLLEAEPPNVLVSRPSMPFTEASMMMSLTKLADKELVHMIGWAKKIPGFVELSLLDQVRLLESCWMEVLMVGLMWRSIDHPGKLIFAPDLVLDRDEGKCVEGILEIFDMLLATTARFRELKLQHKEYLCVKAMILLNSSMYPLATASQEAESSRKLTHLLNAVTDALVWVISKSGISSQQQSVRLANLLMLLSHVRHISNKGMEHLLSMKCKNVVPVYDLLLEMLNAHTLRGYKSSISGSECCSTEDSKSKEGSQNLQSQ
T1 sequence (P19785 whole entry, looked up): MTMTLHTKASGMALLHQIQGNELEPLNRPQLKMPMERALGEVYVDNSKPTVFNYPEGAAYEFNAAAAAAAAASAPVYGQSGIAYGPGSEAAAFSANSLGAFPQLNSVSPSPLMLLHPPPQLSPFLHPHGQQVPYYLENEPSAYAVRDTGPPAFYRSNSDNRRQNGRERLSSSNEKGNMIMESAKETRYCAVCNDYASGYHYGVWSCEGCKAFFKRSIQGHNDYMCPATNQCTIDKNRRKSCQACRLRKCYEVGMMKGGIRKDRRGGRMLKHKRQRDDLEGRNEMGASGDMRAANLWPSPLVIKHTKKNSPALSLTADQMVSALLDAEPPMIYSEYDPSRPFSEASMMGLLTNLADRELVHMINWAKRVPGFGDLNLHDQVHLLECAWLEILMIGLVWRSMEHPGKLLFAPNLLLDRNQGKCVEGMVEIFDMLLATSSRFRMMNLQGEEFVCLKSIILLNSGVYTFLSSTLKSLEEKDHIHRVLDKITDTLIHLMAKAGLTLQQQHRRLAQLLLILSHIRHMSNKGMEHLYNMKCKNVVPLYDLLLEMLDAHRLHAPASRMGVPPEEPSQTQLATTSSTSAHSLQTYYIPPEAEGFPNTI

Row | Effect [1] [mg 100g-1] | inhibition [2] [%] | RBA [3] [%] | Effect [4] [mg 100g-1] | inhibition [5] [%] | inhibition [6] [%] | Effect [7] [mg 100g-1] | Effect [8] [mg 100g-1] | inhibition [9] [%] | Compound
1 | 30.3 | 0 | 2 | 44.7 | 21 |  |  |  |  | CC(=O)c1cccc(C2=C(C(C)C)c3cc(C(C)=O)ccc3C2(C)C)c1
2 |  |  | 2.2 |  |  |  |  |  |  | CC/C(=C(/CC)c1cccc(C(C)=O)c1)c1cccc(C(C)=O)c1
3 | 33.8 | 8 | 1 | 40.4 | 31 | 5 | 27.4 | 41.3 | 54 | CC/C(=C(/CC)c1ccc(C(C)=O)c(C(C)=O)c1)c1ccc(C(C)=O)c(C(C)=O)c1
4 | 30.1 | 9 | 1.8 | 40.2 | 48 |  | 34.8 |  | 30 | CCC1=C(c2cccc(C(C)=O)c2)C(C)c2ccc(C(C)=O)cc21 (configuration not stated)
5 | 29 | 11 | 1.7 | 32.5 | 28 |  |  |  |  | CC(=O)c1ccc(C2=C(C(C)C)c3cc(C(C)=O)c(C(C)=O)cc3C2(C)C)cc1C(C)=O
